Test results: ChEMBL document CHEMBL4196098, “Structure-Activity Relationships and Therapeutic Potentials of 5-HT7 Receptor Ligands: An Update” (J Med Chem, 2018)

Experiments:
[1] = target: T1, 5-hydroxytryptamine receptor 7 (Rattus norvegicus, UniProt P32305); experiment: Displacement of [3H]lysergide from rat recombinant 5-HT7 receptor expressed in HEK293 cell membranes incubated for 60 mins by radioligand binding assay
[2] = target: T2, 5-hydroxytryptamine receptor 1A (Rattus norvegicus, UniProt P19327); experiment: Displacement of [3H]-8-OH-DPAT from 5-HT1A in rat hippocampal membranes incubated for 20 mins by radioligand binding assay; assay type: cell membranes
T2 sequence (P19327 whole entry): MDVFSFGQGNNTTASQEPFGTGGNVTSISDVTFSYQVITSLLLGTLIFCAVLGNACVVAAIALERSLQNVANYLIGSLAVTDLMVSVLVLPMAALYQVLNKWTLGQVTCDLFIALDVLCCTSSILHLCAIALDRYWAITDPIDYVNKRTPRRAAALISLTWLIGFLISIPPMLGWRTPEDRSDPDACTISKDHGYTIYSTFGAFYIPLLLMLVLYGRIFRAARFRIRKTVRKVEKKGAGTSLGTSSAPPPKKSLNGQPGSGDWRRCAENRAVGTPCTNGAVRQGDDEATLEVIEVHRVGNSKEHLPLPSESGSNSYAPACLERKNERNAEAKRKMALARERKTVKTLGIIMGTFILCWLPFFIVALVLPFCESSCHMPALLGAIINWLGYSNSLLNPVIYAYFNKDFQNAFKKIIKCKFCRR

[3] = Intrinsic clearance in human liver microsomes; assay type: ADME, microsome; details: read-out: CLH
[4] = Ratio of drug level in brain to plasma in mouse at 5 mg/kg, ip; assay type: ADME, organism-based; details: read-out: BPR
[5] = target: 5-hydroxytryptamine receptor 7 (Homo sapiens, UniProt P34969); experiment: Binding affinity to 5-HT7 receptor (unknown origin)
Chain of 5-hydroxytryptamine receptor 7 (Homo sapiens, UniProt P34969) (P34969 whole entry): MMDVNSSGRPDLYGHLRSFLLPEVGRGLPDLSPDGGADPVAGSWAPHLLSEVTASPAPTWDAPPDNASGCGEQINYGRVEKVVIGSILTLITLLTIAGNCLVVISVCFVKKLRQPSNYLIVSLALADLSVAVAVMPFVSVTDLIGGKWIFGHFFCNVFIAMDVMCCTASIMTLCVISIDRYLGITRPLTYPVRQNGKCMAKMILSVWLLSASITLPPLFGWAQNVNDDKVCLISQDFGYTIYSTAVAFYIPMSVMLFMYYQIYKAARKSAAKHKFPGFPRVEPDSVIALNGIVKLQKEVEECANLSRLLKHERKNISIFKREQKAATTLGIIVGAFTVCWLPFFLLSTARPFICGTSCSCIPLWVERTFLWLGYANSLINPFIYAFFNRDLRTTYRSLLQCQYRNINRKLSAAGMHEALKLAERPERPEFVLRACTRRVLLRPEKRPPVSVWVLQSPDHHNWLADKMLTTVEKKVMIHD

[6] = target: T1, 5-hydroxytryptamine receptor 7; experiment: Displacement of [3H]5-CT from rat 5-HT7 receptor expressed in HEK293 cell membranes by radioligand binding assay
[7] = target: 5-hydroxytryptamine receptor 2A (Homo sapiens, UniProt P28223); experiment: Binding affinity to 5-HT2A receptor (unknown origin)
Chain of 5-hydroxytryptamine receptor 2A (P28223 whole entry): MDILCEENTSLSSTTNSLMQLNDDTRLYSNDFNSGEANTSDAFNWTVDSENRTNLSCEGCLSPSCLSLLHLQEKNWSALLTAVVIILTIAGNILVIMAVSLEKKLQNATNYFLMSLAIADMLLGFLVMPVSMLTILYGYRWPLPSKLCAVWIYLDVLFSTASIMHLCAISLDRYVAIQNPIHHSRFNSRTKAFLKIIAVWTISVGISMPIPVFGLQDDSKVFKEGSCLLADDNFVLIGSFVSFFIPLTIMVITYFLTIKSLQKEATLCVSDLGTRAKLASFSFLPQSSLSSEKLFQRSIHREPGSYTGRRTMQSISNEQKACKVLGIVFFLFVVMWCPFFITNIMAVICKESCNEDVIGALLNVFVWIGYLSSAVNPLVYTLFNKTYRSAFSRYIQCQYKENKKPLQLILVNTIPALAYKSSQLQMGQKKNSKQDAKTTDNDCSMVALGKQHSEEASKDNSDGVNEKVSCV

[8] = target: T3, 5-hydroxytryptamine receptor 2C (Homo sapiens, UniProt P28335); experiment: Binding affinity to 5-HT2c receptor (unknown origin)
T3 sequence (P28335 whole entry): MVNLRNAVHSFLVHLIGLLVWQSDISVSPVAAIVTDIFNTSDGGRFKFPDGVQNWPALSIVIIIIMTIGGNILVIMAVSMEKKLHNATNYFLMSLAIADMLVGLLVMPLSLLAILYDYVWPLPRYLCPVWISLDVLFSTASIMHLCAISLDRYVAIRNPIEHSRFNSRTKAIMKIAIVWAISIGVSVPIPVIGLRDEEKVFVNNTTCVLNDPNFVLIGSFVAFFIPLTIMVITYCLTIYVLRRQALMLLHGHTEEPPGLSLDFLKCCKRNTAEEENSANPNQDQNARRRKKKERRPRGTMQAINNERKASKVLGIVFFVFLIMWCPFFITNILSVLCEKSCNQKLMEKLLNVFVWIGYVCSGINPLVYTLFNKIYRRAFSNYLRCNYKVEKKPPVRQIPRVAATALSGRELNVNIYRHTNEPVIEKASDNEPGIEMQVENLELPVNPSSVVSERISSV

[9] = target: T1, 5-hydroxytryptamine receptor 7; experiment: Displacement of [3H]-5-CT from 5-HT7 receptor in rat hypothalamus membranes by Cheng-Prusoff equation analysis; assay type: cell membranes, Membrane

T1 sequence (P32305 whole entry): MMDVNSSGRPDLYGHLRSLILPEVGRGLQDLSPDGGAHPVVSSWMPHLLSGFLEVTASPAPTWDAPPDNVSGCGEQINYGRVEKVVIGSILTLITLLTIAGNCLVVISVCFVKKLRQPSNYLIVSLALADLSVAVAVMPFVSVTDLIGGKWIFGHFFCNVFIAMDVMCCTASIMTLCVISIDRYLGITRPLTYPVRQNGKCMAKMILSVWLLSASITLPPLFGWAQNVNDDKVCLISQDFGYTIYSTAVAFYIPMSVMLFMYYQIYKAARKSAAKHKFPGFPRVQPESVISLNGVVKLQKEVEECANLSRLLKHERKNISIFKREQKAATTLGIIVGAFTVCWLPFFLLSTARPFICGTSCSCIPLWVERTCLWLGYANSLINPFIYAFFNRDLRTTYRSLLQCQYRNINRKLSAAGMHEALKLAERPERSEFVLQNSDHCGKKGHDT

**Q.** Which Ki [1] does the source give for `COc1cccc(CCN2CCN(c3ccccc3OC)CC2)c1` here?
**A.** Its Ki is 24.5 nM.

**Q.** And the Ki [2]?
**A.** Its Ki is 2.37 nM.

**Q.** Which results are given for `CCn1cncc1-c1c[nH]c2ccc(OC)cc12`?
**A.** CLint scaled [3]: 3.69 mL/min/kg; Kp [4]: 6.34

**Q.** With `Cc1nn(C)c(C)c1-c1cccc(CCN(C)C)c1` as the compound, how does the Ki [5] read?
**A.** The Ki was 2.5 nM.

**Q.** Which Ki [1] does the source give for `COc1cccc(CCN2CCN(c3ccccc3-c3ccccc3)CC2)c1` here?
**A.** The Ki was 7.5 nM.

**Q.** And the Ki [2]?
**A.** Its Ki is 20 nM.

**Q.** For `CNC(=O)CN1c2ccccc2C2CCN(CCCCC34CCCc5cccc(c53)NC4=O)CC21` (centres undefined), which Ki [5] is on record?
**A.** Its Ki is 4 nM.

**Q.** For `CCn1cncc1-c1c[nH]c2ccc(I)cc12`, which CLint scaled [3] is on record?
**A.** Its CLint scaled is 6.3 mL/min/kg.

**Q.** Which Ki [5] does the source give for `Cc1nn(C)c(C)c1-c1ccc(O)c(CCN(C)C)c1` here?
**A.** The Ki was 0.47 nM.

**Q.** For `Clc1ccc(-c2nn(Cc3ccccc3)c3c2CCNCC3)cc1` [JNJ-18038683 FREE BASE], which Ki [6] is on record?
**A.** Its Ki is 6.5 nM.

**Q.** What does the source list for `Cc1ccc2c(c1)c1c(n2CCc2ccccc2)CCN(C)C1` [MARITUPIRDINE]?
**A.** Ki [7]: 1.2 to 2 nM; Ki [8]: 1.2 to 2 nM

**Q.** With `O=C1c2cccc3cccc(c23)N1CCCCCN1CCN(c2ccccc2)CC1` [UCM-5600] as the compound, how does the Ki [9] read?
**A.** Its Ki is 89 nM.
